Results on two compounds are retold here after patent US20100267731A1, “USE OF TRANSFORMING GROWTH FACTOR-B RECEPTOR INHIBITORS TO SUPPRESS OCULAR SCARRING” (Summa Health Systems, LLC, priority 2009, published 2010).

For data set [1], the system named is New Zealand white rabbits. Nature of the data set: Hematoxylin and eosin staining ex vivo of eyes after GFS. It is filed as in vivo. The following applies: for infiltration of inflammatory cells and scarring in the subconjunctival space: H&E, five days after surgery. The procedure: Five days after surgery, the subjects in Groups A-D were euthanized with Fatal-plus™ (Vortech Pharmaceutical, Dearborn, Mich.) following the manufacturer's instructions. The subject's eyes were enucleated with palpebral margins to keep the conjunctiva epithelium and the subconjunctival space intact. Enucleated eyes were fixed with 10% buffered formalin and 5 μm thick paraffin sections were prepared. The sections were stained with hematoxylin and eosin (H&E) for histological examination, and images were captured using an Olympus DX51 light microscope and DP controller (Olympus, Tokyo, Japan).

Data set [2] deals with New Zealand white rabbits. The data set can be described thus: Post surgery IOP in vivo. Also noted: species or system New Zealand white rabbit. The following applies: rabbit GFS, versus untreated eye. On the procedure:
IOP for the animals in groups A-D was measured with a TONO-PEN AVIA® (Reichert Ophthalmic Instruments, Depew, N.Y.) by gently touching the cornea of each subject after topical anesthesia was applied with 0.5% proparacaine. The IOP reading was omitted if its confidence interval was less than 95%. An average of three measurements was taken to deduce IOP.

Data set [3] has as its system subconjunctival tissue fibroblast outgrowth. Nature of the data set: Subconjunctival tissue fibroblast outgrowth assay ex vivo. It counts as cell-based, New Zealand white rabbit. As to conditions: for cell outgrowth length, explant from 180° control: 180° from the surgical site (180° control). The procedure: Under an ophthalmic surgical microscope, subconjunctival tissues were dissected from the surgical site and 180 (6-o'clock position) from the surgical site (the 180° control). Each biopsy specimen (explant) was placed in a 25 cm^2 cell culture flask with complete media. […] The cell outgrowth, in mm, from the edge of each explant was observed, and the length of the outgrowth in 4 quadrants was measured.

The test system of data set [4] is cultured rabbit subconjunctival fibroblasts. The data set can be described thus: Toxicity of ALK-5 inhibitors in vitro (cell count by hemocytometer). It is filed as cell-based, New Zealand white rabbit. As to conditions: 10.0 of inhibitor pre-treated one hour, then 2 ng/ml TGF-β2 up to 48 hours. The procedure:
Sample fibroblasts were obtained from New Zealand white rabbit eyes. The fibroblasts were derived from the subconjunctival tissues isolated from the eyes of the subjects. The cells were maintained in 25 cm^2 flask using 2 ml of medium composed of Eagle's minimal essential medium, 10% fetal bovine serum, 5% calf serum, essential and nonessential aminoacids, and antibiotics. When the cells reached confluence, they were trypsinized and passaged.
Three samples of the fibroblasts were prepared. The first sample, sample A, included fibroblast cultures treated with 2 ng/ml of TGF-β2 for up to 48 hours. The second sample, sample B, included fibroblast cultures that were untreated. The third sample included fibroblast cultures pre-treated with 2 ml of a medium including […] of ALK-5 inhibitor SB-505124 for one hour, and were additionally treated with additional 2 ng/ml of TGF-β2 (R&D Systems, Minneapolis, Minn.) for up to 48 hours.
The number of cells were counted using a hemocytometer (Hausser Scientific, Horsham, PC) after trypsinization. […] Therefore, in addition to inhibiting the expression of TGF-β2 and mitigating the ocular scarring that may result after GFS by using an ALK-5 type inhibitor, the ALK-5 inhibitor appears to have the added benefit of not destroying healthy cells around the surgical site that prevent post-surgery infection.

Setting [5] is: explants taken five days after GFS.

On to `CO[C@@]12[C@H](COC(N)=O)C3=C(C(=O)C(C)=C(N)C3=O)N1C[C@@H]1N[C@@H]12` [MMC, mitomycin C], for which the “infiltration of inflammatory cells and scarring in the subconjunctival space” value in data set [1] is “only a few inflammatory cells and mild scarring”. For the same compound, the “period IOP of treated eyes was lowered after GFS (in words)” value in data set [2] (MMC control) is reported as “throughout the observation period”. The “cell outgrowth length, explant from 180° control” value in data set [3] (over 18 days) is “approximately 7 mm”.

As for `Cc1cccc(-c2[nH]c(C(C)(C)C)nc2-c2ccc3c(c2)OCO3)n1` [SB-505124], the “infiltration of inflammatory cells and scarring in the subconjunctival space” value in data set [1] was “only a few inflammatory cells and mild scarring”. In data set [1] (rabbit, in vivo), the “signs of tissue toxicity” value is given as “no or very low signs of tissue toxicity” and the subconjunctival blood vessels entry was “seen”. In addition, the “time IOP of treated eyes was lowered after GFS” value in data set [2] (SB-505124 tablet) was “up to 10 days”. The “cell outgrowth length, explant from 180° control” value in data set [3] (over 18 days) is given as “approximately 7 mm”. Also, in data set [3] (setting [5]), the “cell outgrowth from the edge of the subconjunctival tissue explant (qualitative)” value is listed as “robust” and the “difference in cell outgrowth versus untreated group” value is reported as “no significant difference”. The “cell outgrowth length, explant from surgical site” value in data set [3] (surgical site, over 18 days) is on record as “approximately 7 mm”. The “cell number versus samples untreated or treated with TGF-β2 alone” value in data set [4] is recorded as “no measurable difference in cell number”.
